One assay deals with U937 macrophages. Nature of the assay: TNFα in U937 macrophages stimulated with smooth LPS, with SP-A and PtdGro. Type of assay: cell-based. The note with it: 100 ng/ml smooth LPS, 6 hours, SP-A 10 μg/ml, lipid 20 μg/ml. As for the experimental part:
U937 macrophages were stimulated with 100 ng/ml smooth LPS for 6 hours. The culture medium was harvested and assayed for the presence of TNFα by ELISA. Control cultures received no additions. SP-A was added as indicated at 10 μg/ml. Saturated-(16:0/16:0)-PtdGro was added at 20 μg/ml. Unsaturated-(18:1/18:1)-PtdGro was added at 20 μg/ml.

The next assay has as its target T1, Toll-like receptor 3 (Homo sapiens, UniProt O15455).
T1 construct: endogenous in cells; host or cells: primary normal human bronchial epithelial (NHBE) cells
Nature of the assay: polyIC IL-8 production in NHBE cells. The format is cell-based. Conditions: 24 hr. The method, then:
In this experiment, NHBE cells were stimulated with double stranded RNA (polyIC) and the IL-8 production was measured after an interval of 24 hr. The maximal stimulation by agonist is set at 100% and the antagonism by POPG is expressed as the relative % response. The Controls consist of no treatment, or treatment with POPG, in the absence of agonist as indicated.

Assay [1] concerns the target TLR2 (Homo sapiens, UniProt O60603). Nature of the assay: TLR agonist IL-8 production in primary human neutrophils, TLR2. The format is cell-based. The arrangement: endogenous in cells; host or cells: primary human neutrophils. The note with it: Pam3Cys, 5-24 h. As for the experimental part: (§1) In this experiment, multiple TLRs were stimulated with defined TLR agonists for 5-24 h as indicated, and the IL-8 production was measured. In each case the maximal stimulation by agonist is set at 100% and the antagonism by POPG is expressed as the relative % response. The Controls consist of no treatment, or treatment with POPG, in the absence of agonist as indicated. The agonists for the TLRs consist of Pam3Cys for TLR1/2, double stranded RNA (poly IC) for TLR3, Gram-negative lipopolysaccharide (LPS) for TLR4, and single stranded RNA (polyU) for TLR7/8.

Assay [2] deals with T2, TLR2 (Mus musculus, UniProt Q9QUN7).
T2 construct: endogenous in cells; host or cells: RAW 264.7
Nature of the assay: TLR agonist TNFα production in RAW 264.7 cells, TLR2. Type of assay: cell-based. The note with it: Mycoplasma pneumoniae membranes, 24 h. The method, then: In this experiment, multiple TLRs were stimulated with defined TLR agonists for 24 h and the TNFα production was measured. In each case, the maximal stimulation by agonist is set at 100% and the antagonism by POPG is expressed as the relative % response. The Controls consist of no treatment, or treatment with POPG in the absence of agonist as indicated. The agonists for the TLRs consist of Pam3Cys for TLR1/2, Mycoplasma pneumoniae membranes as an agonist for TLR2, mycoplasma derived MALP2 as an agonist for TLR 2/6, double stranded RNA (poly IC) for TLR3, Gram-negative lipopolysaccharide for TLR4, and CpG rich DNA as an agonist for TLR9. The TLR4 panel also contains the antagonist polymyxin B (PB) for comparison with POPG.

A further assay has as its system TLR7. Nature of the assay: TLR agonist IL-8 production in primary human neutrophils, TLR7. The format is cell-based. The note with it: polyU, 5-24 h. The method, then:
as §1

Assay [3] deals with Respiratory Syncytial Virus (RSV). The assay can be described thus: RSV replication in NHBE cells (anti-RSV antibody staining). Type of assay: cell-based. The note with it: multiplicity 3, 72 h, POPG 200 ug/ml. The method, then: Monolayers of BEAS2B and NHBE cells were infected with RSV at a multiplicity of 3 for 72 h. Infections were performed on cells in either the absence or the presence of POPG (200 ug/ml). The cell monolayers were fixed and stained with goat anti-human RSV antibody conjugated with horseradish peroxidase. The presence of the antibody was detected with diaminobenzamidine. Controls consisted of cell layers not exposed to the virus or exposed to POPG in the absence of virus as indicated.

The target of another assay is T3, TLR1 (Homo sapiens, UniProt Q15399).
T3 sequence (Q15399 25-786): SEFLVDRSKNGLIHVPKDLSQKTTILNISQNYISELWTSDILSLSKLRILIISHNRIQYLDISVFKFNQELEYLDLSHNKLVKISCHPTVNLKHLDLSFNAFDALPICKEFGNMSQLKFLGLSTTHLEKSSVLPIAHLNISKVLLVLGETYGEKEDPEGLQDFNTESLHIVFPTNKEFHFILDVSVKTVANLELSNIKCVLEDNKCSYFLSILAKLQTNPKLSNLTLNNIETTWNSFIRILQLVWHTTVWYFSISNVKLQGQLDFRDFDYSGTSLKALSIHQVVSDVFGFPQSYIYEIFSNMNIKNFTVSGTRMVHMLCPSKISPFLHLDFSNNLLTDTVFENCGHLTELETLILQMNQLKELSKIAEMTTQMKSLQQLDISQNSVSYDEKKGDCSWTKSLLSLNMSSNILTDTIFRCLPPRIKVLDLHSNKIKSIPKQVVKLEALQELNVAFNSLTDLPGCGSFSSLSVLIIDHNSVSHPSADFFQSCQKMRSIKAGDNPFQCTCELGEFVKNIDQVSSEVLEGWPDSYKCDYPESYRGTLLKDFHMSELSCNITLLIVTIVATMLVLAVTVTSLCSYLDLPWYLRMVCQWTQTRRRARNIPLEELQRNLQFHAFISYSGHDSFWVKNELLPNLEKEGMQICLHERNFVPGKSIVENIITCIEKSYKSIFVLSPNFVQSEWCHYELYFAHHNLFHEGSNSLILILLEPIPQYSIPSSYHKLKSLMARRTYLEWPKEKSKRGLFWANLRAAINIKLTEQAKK
The assay can be described thus: TLR agonist IL-8 production in primary human neutrophils, TLR1. Type of assay: cell-based. Conditions: Pam3Cys, 5-24 h. The arrangement: endogenous in cells; host or cells: primary human neutrophils. As for the experimental part: as §1

In a further assay the target is T4, PstB2 (Saccharomyces cerevisiae, UniProt P53844).
T4 construct: made in house; host or cells: baculovirus-insect cell expression system
The assay can be described thus: PstB2 control protein binding to solid phase POPG. More on the design: species or system yeast. The note with it: PstB2 1 μg/ml. An excerpt: FIG. 16. MD-2 preferentially binds POPG.

The subject of assay [4] is TNF-α stimulated macrophages. The assay can be described thus: IkBα degradation in TNF-α stimulated macrophages. The format is cell-based. The note with it: TNF-α 10 ng/ml. The method, then:
Protein synthesis was measured by determining [^3H]-Leucine incorporation into trichloroacetic acid precipitable material in the presence and absence of 200 μg/ml POPG. No changes in protein synthesis occurred over a 6 hr period in POPG treated U937 cells compared to untreated cells in 3 independent experiments. […] In these studies, macrophages were treated with TNF-α (10 ng/ml) and the degradation of IkBα was measured. […] Collectively, these studies indicate that the actions of the anionic lipids upon LPS signaling are specific.

Another assay has as its system RSV. The assay can be described thus: RSV binding to solid phase phospholipids (ELISA). The arrangement: species or system Respiratory Syncytial Virus (RSV). The note with it: 10 ug lipid per well, varying RSV. The method, then: Solid phase phospholipids (10 ug) were adsorbed to microtiter wells by evaporation of ethanol solvent. The wells were blocked with albumin and exposed to varying concentrations of RSV as shown in the left panel of FIG. 37. The wells were washed 3 times with phosphate buffered saline and the bound virus was detected by ELISA using polyclonal rabbit anti-RSV.

T4 sequence (P53844 whole entry): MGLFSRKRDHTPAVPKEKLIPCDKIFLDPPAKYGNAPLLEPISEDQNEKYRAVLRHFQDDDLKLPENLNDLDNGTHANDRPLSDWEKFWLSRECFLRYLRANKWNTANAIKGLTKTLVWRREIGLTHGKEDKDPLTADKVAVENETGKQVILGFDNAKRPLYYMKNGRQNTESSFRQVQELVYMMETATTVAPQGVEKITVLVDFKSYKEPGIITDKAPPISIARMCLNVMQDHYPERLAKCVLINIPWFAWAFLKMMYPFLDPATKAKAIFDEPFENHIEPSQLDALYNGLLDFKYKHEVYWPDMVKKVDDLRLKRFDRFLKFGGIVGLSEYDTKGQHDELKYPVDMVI
T1 sequence (O15455 24-904): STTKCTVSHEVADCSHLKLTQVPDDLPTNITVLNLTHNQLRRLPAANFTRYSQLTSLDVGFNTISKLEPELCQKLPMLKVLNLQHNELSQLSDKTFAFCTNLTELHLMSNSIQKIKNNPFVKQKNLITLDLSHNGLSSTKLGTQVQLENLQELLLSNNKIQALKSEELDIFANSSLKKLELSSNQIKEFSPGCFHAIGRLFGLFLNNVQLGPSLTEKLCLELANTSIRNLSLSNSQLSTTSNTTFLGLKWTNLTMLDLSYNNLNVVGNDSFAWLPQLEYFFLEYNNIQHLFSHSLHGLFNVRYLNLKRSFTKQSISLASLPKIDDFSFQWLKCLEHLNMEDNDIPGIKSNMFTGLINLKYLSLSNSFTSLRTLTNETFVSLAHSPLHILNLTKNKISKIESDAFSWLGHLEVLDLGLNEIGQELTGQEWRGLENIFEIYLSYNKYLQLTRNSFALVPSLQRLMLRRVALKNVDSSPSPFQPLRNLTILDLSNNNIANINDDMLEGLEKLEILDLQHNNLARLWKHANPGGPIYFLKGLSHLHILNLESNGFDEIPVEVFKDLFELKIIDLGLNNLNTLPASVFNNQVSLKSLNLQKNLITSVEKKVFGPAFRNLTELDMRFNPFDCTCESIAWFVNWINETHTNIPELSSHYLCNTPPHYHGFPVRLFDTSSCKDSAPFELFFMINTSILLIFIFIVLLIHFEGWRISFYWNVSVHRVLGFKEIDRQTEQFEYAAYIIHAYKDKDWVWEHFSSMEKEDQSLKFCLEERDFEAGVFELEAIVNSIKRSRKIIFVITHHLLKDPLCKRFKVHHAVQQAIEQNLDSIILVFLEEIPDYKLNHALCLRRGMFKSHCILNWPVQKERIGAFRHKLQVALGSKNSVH
T2 sequence (Q9QUN7 25-784): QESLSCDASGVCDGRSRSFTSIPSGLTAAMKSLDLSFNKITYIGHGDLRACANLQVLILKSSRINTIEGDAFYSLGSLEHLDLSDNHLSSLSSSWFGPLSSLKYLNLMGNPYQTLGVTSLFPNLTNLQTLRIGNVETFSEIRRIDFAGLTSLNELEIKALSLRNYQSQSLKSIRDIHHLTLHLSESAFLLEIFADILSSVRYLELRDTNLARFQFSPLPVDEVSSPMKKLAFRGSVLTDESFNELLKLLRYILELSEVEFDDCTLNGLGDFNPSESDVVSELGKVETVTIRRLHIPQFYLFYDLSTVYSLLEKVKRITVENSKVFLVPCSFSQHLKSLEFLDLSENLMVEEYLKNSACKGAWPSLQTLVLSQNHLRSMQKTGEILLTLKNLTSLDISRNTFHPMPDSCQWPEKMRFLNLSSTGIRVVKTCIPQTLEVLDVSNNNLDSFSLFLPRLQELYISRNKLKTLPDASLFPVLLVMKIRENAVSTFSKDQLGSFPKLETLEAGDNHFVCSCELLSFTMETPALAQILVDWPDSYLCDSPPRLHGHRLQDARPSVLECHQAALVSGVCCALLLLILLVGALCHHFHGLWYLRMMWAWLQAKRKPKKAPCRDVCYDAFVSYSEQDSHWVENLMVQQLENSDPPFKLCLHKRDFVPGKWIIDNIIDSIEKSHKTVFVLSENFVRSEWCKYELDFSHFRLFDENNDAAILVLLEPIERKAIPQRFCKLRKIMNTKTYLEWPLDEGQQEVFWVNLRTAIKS
Sequence of TLR2 (Homo sapiens, UniProt O60603) (O60603 21-784): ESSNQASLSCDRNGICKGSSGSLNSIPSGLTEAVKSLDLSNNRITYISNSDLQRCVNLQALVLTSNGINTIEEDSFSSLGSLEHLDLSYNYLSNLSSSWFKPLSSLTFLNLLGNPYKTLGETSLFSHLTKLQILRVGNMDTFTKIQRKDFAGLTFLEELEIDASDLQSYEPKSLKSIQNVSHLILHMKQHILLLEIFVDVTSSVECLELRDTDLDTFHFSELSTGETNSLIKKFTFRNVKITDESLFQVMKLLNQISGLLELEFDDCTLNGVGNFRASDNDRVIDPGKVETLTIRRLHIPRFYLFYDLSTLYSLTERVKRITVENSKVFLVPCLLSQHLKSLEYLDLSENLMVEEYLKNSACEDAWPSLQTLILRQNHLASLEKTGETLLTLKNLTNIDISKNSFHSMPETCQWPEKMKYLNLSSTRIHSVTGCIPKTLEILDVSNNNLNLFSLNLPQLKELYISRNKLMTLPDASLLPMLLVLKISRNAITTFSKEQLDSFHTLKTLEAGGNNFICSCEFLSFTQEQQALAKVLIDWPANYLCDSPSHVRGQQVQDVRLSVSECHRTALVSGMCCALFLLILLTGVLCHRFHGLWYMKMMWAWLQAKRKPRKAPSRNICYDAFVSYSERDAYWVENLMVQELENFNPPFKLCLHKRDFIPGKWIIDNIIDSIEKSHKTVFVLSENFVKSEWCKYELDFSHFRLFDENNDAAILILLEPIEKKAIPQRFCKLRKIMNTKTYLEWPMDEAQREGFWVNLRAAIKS

As for `CCCCCCCCCCCCCCCC(=O)OCC(COP(=O)(O)OCC(O)CO)OC(=O)CCCCCCCCCCCCCCC` (stereo not shown) [DPPG, dipalmitoyl-phosphatidylglycerol, reference compound], in the assay with U937 macrophages, the “blocking of the anti-inflammatory effects of SP-A (TNFα)” value was “does not block”.

In the case of `CCCCCCCC/C=C\CCCCCCCC(=O)O[C@H](COC(=O)CCCCCCCCCCCCCCC)COP(=O)(O)OCC(O)CO` (stereo partly shown) [POPG, palmitoyl-oleoyl-phosphatidylglycerol], on Toll-like receptor 3, the “activity of TLR3 (IL-8 production)” value was “inhibits”. Moreover, at TLR2 [1], the “activity of TLR2 (IL-8 production)” value is recorded as “inhibits”. For the same molecule, the “activity of TLR2 (TNFα production)” value on TLR2 [2] is “inhibits”. Further, the “activity of TLR7 (IL-8 production)” value in the assay on TLR7 is recorded as “inhibits”. Also, the viral replication entry in assay [3] is reported as “prevents viral replication”. Moreover, at TLR1, the “activity of TLR1 (IL-8 production)” value is on record as “inhibits”. Besides, on PstB2, the “binding to PstB2” value was “not”. Besides, the “IkBα degradation after TNF-α stimulation” value in assay [4] was “failed to alter”. Further, the “binding of RSV to solid phase phospholipid” value with RSV is “binds RSV with high affinity and specificity”.

Values taken from patent US10532066B2, “Surfactant lipids, compositions thereof, and uses thereof” (National Jewish Health, priority 2007, dated 2020).
